# Reference: patent US9149475B2, “Protein kinase C inhibitors and uses thereof” (Rigel Pharmaceuticals, Inc., priority 2009, dated 2015)
# Tested on: Human primary T cells
# Assay: IL-2 ELISA, human primary T cell, anti-CD3+CD28+ (whole cell assay)
# Format: cell-based
# Conditions: Homo sapiens, T-cell, 24 h, human primary T cells stimulated with anti-CD3 + anti-CD28, 24 hours
# How it was run: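 PBMC-derived T cells, pre-expanded on αCD3/αCD28 with IL-2 and then washed free of IL-2, were preincubated with compound for 1 hr at 37° C (100,000 cells/well). They were then stimulated on 1 μg/ml αCD3 plus 5 μg/ml αCD28 for 24 h, and supernatant IL-2 was measured by ELISA. The counter-assay used 0.5 ng/ml PMA plus 0.1 μM ionomycin instead.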
row,SMILES,IC50 [nM]
1,"CC(C)Oc1ccc(Nc2ncc(F)c(NC3CC(C)(C)NC(C)(C)C3)n2)cc1N(C)C(C)C [III-65, 5-fluoro-N2-(4-isopropoxy-3-(isopropyl(methyl)amino)phenyl)-N4-(2,2,6,6-tetramethylpiperidin-4-yl)pyrimidine-2,4-diamine]",> 1000
2,"CC(C)Oc1ccc(Nc2ncc(F)c(NC3CC(C)(C)N(C)C(C)(C)C3)n2)cc1N(C)C(C)C [III-66, 5-fluoro-N2-(4-isopropoxy-3-(isopropyl(methyl)amino)phenyl)-N4-(1,2,2,6,6-pentamethylpiperidin-4-yl)pyrimidine-2,4-diamine]",> 1000
3,"CCc1nnnn1-c1cc(Nc2ncc(F)c(NC3CC(C)(C)NC(C)(C)C3)n2)ccc1OC(F)F [III-67, N2-(4-(difluoromethoxy)-3-(5-ethyl-1H-tetrazol-1-yl)phenyl)-5-fluoro-N4-(2,2,6,6-tetramethylpiperidin-4-yl)pyrimidine-2,4-diamine]",250 to 500
4,"CN1C(C)(C)CC(Nc2nc(Nc3cccc(-c4nn[nH]n4)c3)ncc2F)CC1(C)C [III-68, N2-(3-(2H-tetrazol-5-yl)phenyl)-5-fluoro-N4-(1,2,2,6,6-pentamethylpiperidin-4-yl)pyrimidine-2,4-diamine]",> 1000
5,"CC1(C)CC(Nc2nc(Nc3cccc(-c4nn[nH]n4)c3)ncc2F)CC(C)(C)N1 [III-69, N2-(3-(2H-tetrazol-5-yl)phenyl)-5-fluoro-N4-(2,2,6,6-tetramethylpiperidin-4-yl)pyrimidine-2,4-diamine]",> 1000
6,"CC(C)n1nnnc1-c1cccc(Nc2ncc(F)c(NC3CC(C)(C)N(C)C(C)(C)C3)n2)c1 [III-70, 5-fluoro-N2-(3-(1-isopropyl-1H-tetrazol-5-yl)phenyl)-N4-(1,2,2,6,6-pentamethylpiperidin-4-yl)pyrimidine-2,4-diamine]",< 250
7,"CC(C)n1nnnc1-c1cccc(Nc2ncc(F)c(NC3CC(C)(C)NC(C)(C)C3)n2)c1 [III-71, 5-fluoro-N2-(3-(1-isopropyl-1H-tetrazol-5-yl)phenyl)-N4-(2,2,6,6-tetramethylpiperidin-4-yl)pyrimidine-2,4-diamine]",500 to 1000
8,"CN1C(C)(C)CC(Nc2nc(Nc3cccc(-c4nnnn4C4CC4)c3)ncc2F)CC1(C)C [III-72, N2-(3-(1-cyclopropyl-1H-tetrazol-5-yl)phenyl)-5-fluoro-N4-(1,2,2,6,6-pentamethylpiperidin-4-yl)pyrimidine-2,4-diamine]",< 250
9,"CC1(C)CC(Nc2nc(Nc3cccc(-c4nnnn4C4CC4)c3)ncc2F)CC(C)(C)N1 [III-73, N2-(3-(1-cyclopropyl-1H-tetrazol-5-yl)phenyl)-5-fluoro-N4-(2,2,6,6-tetramethylpiperidin-4-yl)pyrimidine-2,4-diamine]",500 to 1000
10,"CN1C(C)(C)CC(Nc2nc(Nc3cccc(-c4nnnn4CCF)c3)ncc2F)CC1(C)C [III-74, 5-fluoro-N2-(3-(1-(2-fluoroethyl)-1H-tetrazol-5-yl)phenyl)-N4-(1,2,2,6,6-pentamethylpiperidin-4-yl)pyrimidine-2,4-diamine]",250 to 500
11,"CC1(C)CC(Nc2nc(Nc3cccc(-c4nnnn4CCF)c3)ncc2F)CC(C)(C)N1 [III-75, 5-fluoro-N2-(3-(1-(2-fluoroethyl)-1H-tetrazol-5-yl)phenyl)-N4-(2,2,6,6-tetramethylpiperidin-4-yl)pyrimidine-2,4-diamine]",500 to 1000
12,"CN1C(C)(C)CC(Nc2nc(Nc3cccc(-c4nnnn4CCN4CCOCC4)c3)ncc2F)CC1(C)C [III-76, 5-fluoro-N2-(3-(1-(2-morpholinoethyl)-1H-tetrazol-5-yl)phenyl)-N4-(1,2,2,6,6-pentamethylpiperidin-4-yl)pyrimidine-2,4-diamine]",500 to 1000
13,"CC1(C)CC(Nc2nc(Nc3cccc(-c4nnnn4CCN4CCOCC4)c3)ncc2F)CC(C)(C)N1 [III-77, 5-fluoro-N2-(3-(1-(2-morpholinoethyl)-1H-tetrazol-5-yl)phenyl)-N4-(2,2,6,6-tetramethylpiperidin-4-yl)pyrimidine-2,4-diamine]",> 1000
14,"CN1C(C)(C)CC(Nc2nc(Nc3cc(F)c(OC4CCN(S(C)(=O)=O)CC4)c(F)c3)ncc2F)CC1(C)C [III-78, N2-(3,5-difluoro-4-(1-(methylsulfonyl)piperidin-4-yloxy)phenyl)-5-fluoro-N4-(1,2,2,6,6-pentamethylpiperidin-4-yl)pyrimidine-2,4-diamine]",500 to 1000
15,"CN1C(C)(C)CC(Nc2nc(Nc3cc(F)c(OC4CCCN(S(C)(=O)=O)CC4)c(F)c3)ncc2F)CC1(C)C (stereo not drawn) [III-79, N2-(3,5-difluoro-4-(1-(methylsulfonyl)azepan-4-yloxy)phenyl)-5-fluoro-N4-(1,2,2,6,6-pentamethylpiperidin-4-yl)pyrimidine-2,4-diamine]",500 to 1000
16,"CC1(C)CC(Nc2nc(Nc3cc(F)c(OC4CCCN(S(C)(=O)=O)CC4)c(F)c3)ncc2F)CC(C)(C)N1 (stereo not drawn) [III-80, N2-(3,5-difluoro-4-(1-(methylsulfonyl)azepan-4-yloxy)phenyl)-5-fluoro-N4-(2,2,6,6-tetramethylpiperidin-4-yl)pyrimidine-2,4-diamine]",> 1000
17,"CC(=O)N1CCCC(Oc2c(F)cc(Nc3ncc(F)c(NC4CC(C)(C)N(C)C(C)(C)C4)n3)cc2F)CC1 (stereo not drawn) [III-81, 1-(4-(2,6-difluoro-4-(5-fluoro-4-(1,2,2,6,6-pentamethylpiperidin-4-ylamino)pyrimidin-2-ylamino)phenoxy)azepan-1-yl)ethanone]",500 to 1000
18,"CC(=O)N1CCCC(Oc2c(F)cc(Nc3ncc(F)c(NC4CC(C)(C)NC(C)(C)C4)n3)cc2F)CC1 (stereo not drawn) [III-82, 1-(4-(2,6-difluoro-4-(5-fluoro-4-(2,2,6,6-tetramethylpiperidin-4-ylamino)pyrimidin-2-ylamino)phenoxy)azepan-1-yl)ethanone]",> 1000
19,"CCNC(=O)N1CCCC(Oc2c(F)cc(Nc3ncc(F)c(NC4CC(C)(C)N(C)C(C)(C)C4)n3)cc2F)CC1 (stereo not drawn) [III-83, 4-(2,6-difluoro-4-(5-fluoro-4-(1,2,2,6,6-pentamethylpiperidin-4-ylamino)pyrimidin-2-ylamino)phenoxy)-N-ethylazepane-1-carboxamide]",500 to 1000
20,"CC1(C)CC(Nc2nc(Nc3cc(F)c(OC4CCN(S(C)(=O)=O)CC4)c(F)c3)ncc2F)CC(C)(C)N1 [III-84, N2-(3,5-difluoro-4-(1-(methylsulfonyl)piperidin-4-yloxy)phenyl)-5-fluoro-N4-(2,2,6,6-tetramethylpiperidin-4-yl)pyrimidine-2,4-diamine]",> 1000
21,"CCNC(=O)N1CCCC(Oc2c(F)cc(Nc3ncc(F)c(NC4CC(C)(C)NC(C)(C)C4)n3)cc2F)CC1 (stereo not drawn) [III-85, 4-(2,6-difluoro-4-(5-fluoro-4-(2,2,6,6-tetramethylpiperidin-4-ylamino)pyrimidin-2-ylamino)phenoxy)-N-ethylazepane-1-carboxamide]",> 1000
22,"CCNC(=O)N1CCC(Oc2ccc(Nc3ncc(F)c(NC4CC(C)(C)NC(C)(C)C4)n3)cc2OC(F)F)CC1 [III-86, 4-(2-(difluoromethoxy)-4-(5-fluoro-4-(2,2,6,6-tetramethylpiperidin-4-ylamino)pyrimidin-2-ylamino)phenoxy)-N-ethylpiperidine-1-carboxamide]",> 1000
23,"CCNC(=O)N1CCCC(Oc2ccc(Nc3ncc(F)c(NC4CC(C)(C)N(C)C(C)(C)C4)n3)cc2OC(F)F)CC1 (stereo not drawn) [III-87, 4-(2-(difluoromethoxy)-4-(5-fluoro-4-(1,2,2,6,6-pentamethylpiperidin-4-ylamino)pyrimidin-2-ylamino)phenoxy)-N-ethylazepane-1-carboxamide]",250 to 500
24,"CCNC(=O)N1CCCC(Oc2ccc(Nc3ncc(F)c(NC4CC(C)(C)NC(C)(C)C4)n3)cc2OC(F)F)CC1 (stereo not drawn) [III-88, 4-(2-(difluoromethoxy)-4-(5-fluoro-4-(2,2,6,6-tetramethylpiperidin-4-ylamino)pyrimidin-2-ylamino)phenoxy)-N-ethylazepane-1-carboxamide]",> 1000
25,"CN1C(C)(C)CC(Nc2nc(Nc3ccc(OC4CCCN(S(C)(=O)=O)CC4)c(OC(F)F)c3)ncc2F)CC1(C)C (stereo not drawn) [III-89, N2-(3-(difluoromethoxy)-4-(1-(methylsulfonyl)azepan-4-yloxy)phenyl)-5-fluoro-N4-(1,2,2,6,6-pentamethylpiperidin-4-yl)pyrimidine-2,4-diamine]",250 to 500
26,"CC1(C)CC(Nc2nc(Nc3ccc(OC4CCCN(S(C)(=O)=O)CC4)c(OC(F)F)c3)ncc2F)CC(C)(C)N1 (stereo not drawn) [III-90, N2-(3-(difluoromethoxy)-4-(1-(methylsulfonyl)azepan-4-yloxy)phenyl)-5-fluoro-N4-(2,2,6,6-tetramethylpiperidin-4-yl)pyrimidine-2,4-diamine]",500 to 1000
27,"CC(=O)N1CCC(Oc2c(F)cc(Nc3ncc(F)c(NC4CC(C)(C)N(C)C(C)(C)C4)n3)cc2F)CC1 [III-91, 1-(4-(2,6-difluoro-4-(5-fluoro-4-(1,2,2,6,6-pentamethylpiperidin-4-ylamino)pyrimidin-2-ylamino)phenoxy)piperidin-1-yl)ethanone]",500 to 1000
28,"CC(=O)N1CCC(Oc2c(F)cc(Nc3ncc(F)c(NC4CC(C)(C)NC(C)(C)C4)n3)cc2F)CC1 [III-92, 1-(4-(2,6-difluoro-4-(5-fluoro-4-(2,2,6,6-tetramethylpiperidin-4-ylamino)pyrimidin-2-ylamino)phenoxy)piperidin-1-yl)ethanone]",> 1000
29,"CC(C)N1CCC(Oc2ccc(Nc3ncc(F)c(NC4CC(C)(C)N(C)C(C)(C)C4)n3)cc2Cl)CC1 [III-95, N2-(3-chloro-4-(1-isopropylpiperidin-4-yloxy)phenyl)-5-fluoro-N4-(1,2,2,6,6-pentamethylpiperidin-4-yl)pyrimidine-2,4-diamine]",< 250
30,"CC1(C)CC(Nc2nc(Nc3ccc(OC4CCN(CCF)CC4)c(Cl)c3)ncc2F)CC(C)(C)N1 [III-96, N2-(3-chloro-4-(1-(2-fluoroethyl)piperidin-4-yloxy)phenyl)-5-fluoro-N4-(2,2,6,6-tetramethylpiperidin-4-yl)pyrimidine-2,4-diamine]",< 250
